Experimental data: patent US20110190503A1, “Thiazolopyridin-2-yloxy-phenyl and thiazolopyrazin-2-yloxy-phenyl amines as modulators of leukotriene A4 hydrolase” (Janssen Pharmaceutical NV, priority 2008, published 2011)

What was measured:
[1] = test system: LTB4 production by calcium ionophore-stimulated murine blood; experiment: LTB4 production by calcium ionophore-stimulated murine blood for LTA4H inhibitor activity; assay type: cell-based, CD-1 mice; details: Mus musculus; murine blood diluted 1 in 15, calcium ionophore A23187, LTB4 by immunoassay; read-out: IC50
Procedure, shortened: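 LTB4 quantified by EIA in supernatants after murine (CD-1) heparinized whole blood was exposed to compound for 15 min, then to 7 μg/mL (final) A23187 for 30 min, all at 37° C. Reported values: single runs or means; three or more runs include SD.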

[2] = molecular target: T1, recombinant human LTA4 hydrolase (rhLTA4H) (Homo sapiens, UniProt P09960); experiment: Recombinant human LTA4 hydrolase assay for LTA4 hydrolase inhibitor activity; assay type: biochemical; details: rhLTA4H, LTA4 substrate, LTB4 by immunoassay; single determination or average; read-out: IC50
T1 construct: made in house; host or cells: Spodoptera frugiperda (Sf-9) cells, recombinant baculovirus (pFastBac1)
T1 sequence (P09960 1-611): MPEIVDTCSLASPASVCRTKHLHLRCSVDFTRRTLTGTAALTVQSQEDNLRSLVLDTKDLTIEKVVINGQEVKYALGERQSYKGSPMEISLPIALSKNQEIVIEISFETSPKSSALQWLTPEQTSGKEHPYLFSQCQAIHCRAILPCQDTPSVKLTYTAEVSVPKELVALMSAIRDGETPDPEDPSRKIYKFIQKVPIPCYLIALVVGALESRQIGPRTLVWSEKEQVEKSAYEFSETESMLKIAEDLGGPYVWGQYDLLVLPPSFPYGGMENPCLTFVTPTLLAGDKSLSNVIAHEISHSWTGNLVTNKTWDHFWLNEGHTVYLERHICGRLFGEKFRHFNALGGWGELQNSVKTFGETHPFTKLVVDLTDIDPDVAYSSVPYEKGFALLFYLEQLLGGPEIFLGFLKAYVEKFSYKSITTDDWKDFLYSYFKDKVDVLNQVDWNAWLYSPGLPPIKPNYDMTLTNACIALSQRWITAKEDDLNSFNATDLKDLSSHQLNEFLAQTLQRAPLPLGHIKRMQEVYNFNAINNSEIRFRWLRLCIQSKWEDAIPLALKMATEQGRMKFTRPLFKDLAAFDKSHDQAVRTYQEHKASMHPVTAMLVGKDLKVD
Procedure, shortened: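 LTB4 formed from LTA4 substrate (free acid from the methyl ester) was quantified by enzyme immunoassay after a 30 min rt reaction. Enzyme was 10 ng Sf-9-expressed human LTA4 hydrolase, pre-incubated 10 min with compound.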

[3] = test system: ex vivo stimulated LTB4 production; experiment: Murine arachidonic acid-induced inflammation model: ex vivo stimulated LTB4 production (% Inh. LTB4); details: Mus musculus; female Balb/c mice, 30 mg/kg oral gavage; blood taken 3 h after arachidonic acid, ex vivo A23187 stimulation; number of determinations in parentheses
Method: (§1) Assay 4: Murine Arachidonic Acid-Induced Inflammation Model
(§2) LTA4H inhibitor compounds of the present invention were dissolved in 20% cyclodextran/H2O at a concentration of 3 mg/mL. The solutions were administered by oral gavage to female Balb/c mice weighing approximately 20 grams each (0.2 mL per mouse, 30 mg of LTA4H inhibitor compound per kg). Sixty minutes after being administered an LTA4 inhibitor, each mouse received topical application of 20 μL of arachidonic acid (100 mg/mL in acetone) to the left ear and 20 μL of acetone only to the right ear. After 3 h, the mice were sacrificed, blood was withdrawn in heparinized syringes, and 8 mm ear biopsies were taken. Ear biopsies were weighed to determine edema and then frozen at −80° C. until needed for determination of neutrophil influx.
One hundred-microliter aliquots of heparinized blood were added to wells of a microtiter plate, along with equal volumes of RPMI-1640 medium, and calcium ionophore A23187 was added to each sample well (final concentration=[…]). The microtiter plate contents were incubated for 30 min at 37° C. in a humidified incubator. The reaction was terminated by centrifugation (833×g, 10 min at 4° C.). Supernatants were analyzed for LTB4 by a commercially available enzyme-linked immunoassay (Cayman Chemical Co.) in accordance with the manufacturer's instructions. The percent inhibition of ex vivo stimulated LTB4 production (% Inh. LTB4) was determined by comparison to animals treated identically except that the solution administered by oral gavage was devoid of inhibitor compound.
(§3) The number of determinations is indicated in parentheses following each value

[4] = test system: neutrophil influx; experiment: Murine arachidonic acid-induced inflammation model: neutrophil influx in ear, myeloperoxidase activity (% Inh. MPO); assay type: in vivo; details: Mus musculus, female Balb/c mice, 30 mg/kg oral gavage, ear biopsy 3 h after topical arachidonic acid, number of determinations in parentheses
Method: as §1, §2
Neutrophil influx was quantified by measuring the activity of myeloperoxidase (MPO), a neutrophil-specific enzyme. The ear biopsies were homogenized in 0.5 mL extraction buffer (0.3 M sucrose, 0.22% (w/v) hexadecyl trimethyl ammonium bromide (CTAB), and 2.5 mM citrate prepared from 0.5 M citrate stock solution (pH 5.0)), in a Fast-Prep-24 (MP™) (40 seconds at 6 mps). Debris was removed by centrifugation at 14000×g for 10 min. Aliquots of 10 μL of the resulting supernatant were added to wells of a microtiter plate, along with 90-μL aliquots of dilution buffer (10 mM citrate, 0.22% CTAB), followed by addition of 20 μL TMB liquid substrate system (Sigma Chemical Co.) to each sample well. The microtiter plate contents were held at room temperature until the sample with the highest concentration of MPO reached an absorbance value of 0.4 at 650 nm. The reaction was stopped by addition of 50 μL 1 M H2SO4 to each sample well, and the myeloperoxidase activity in each sample was determined from the absorbance at 405 nm. The background value from the right ear, treated only with acetone, was subtracted from that for the left ear, treated with arachidonic acid in acetone, for each animal. The percent inhibition of neutrophil influx (% Inh. MPO) by compounds of the invention was determined by comparison to animals treated identically, except that the solution administered by oral gavage was devoid of inhibitor compound.
as §3

Compound	IC50 [1]	IC50 [2]	inhibition at 30 mg/kg [3]	inhibition in vivo at 30 mg/kg [4]
CC(=O)N[C@H]1C[C@H]2CC[C@@H](C1)N2CCOc1ccc(Oc2nc3ncccc3s2)cc1 [Example 16, meso-N-[(3-endo)-8-{2-[4-([1,3]Thiazolo[4,5-b]pyridin-2-yloxy)phenoxy]ethyl}-8-azabicyclo[3.2.1]oct-3-yl]acetamide]	26 nM	3 nM	84.6%	73.6%
Cc1ccc(SC2CCN(CCOc3ccc(Oc4nc5ncccc5s4)cc3)CC2)cc1 [Example 255, 2-[4-(2-{4-[(4-Methylphenyl)sulfanyl]piperidin-1-yl}ethoxy)phenoxy][1,3]thiazolo[4,5-b]pyridine]	1300 nM	71 nM		
c1cnc2nc(Oc3ccc(CN4CCC(N5CCCCC5)CC4)cc3)sc2c1 [Example 256, 1′-[4-([1,3]Thiazolo[4,5-b]pyridin-2-yloxy)benzyl]-1,4′-bipiperidine]	178 nM	87 nM		
c1ccc(OC2CCN(Cc3ccc(Oc4nc5ncccc5s4)cc3)CC2)nc1 [Example 261, 2-(4-{[4-(Pyridin-2-yloxy)piperidin-1-yl]methyl}phenoxy)[1,3]thiazolo[4,5-b]pyridine]	38 nM	7 nM		
c1cnc2nc(Oc3ccc(CN4CCC(Oc5ccncc5)CC4)cc3)sc2c1 [Example 262, 2-(4-{[4-(Pyridin-4-yloxy)piperidin-1-yl]methyl}phenoxy)[1,3]thiazolo[4,5-b]pyridine]	97 nM	3 nM		
NC(=O)N1C[C@H]2C[C@@H]1CN2CCOc1ccc(Oc2nc3ncccc3s2)cc1 [Example 268, (1R,4R)-5-{2-[4-([1,3]Thiazolo[4,5-b]pyridin-2-yloxy)phenoxy]ethyl}-2,5-diazabicyclo[2.2.1]heptane-2-carboxamide]	91 nM	32 nM		
COCCCN(CCOc1ccc(Oc2nc3ncccc3s2)cc1)C1CC1 [Example 272, N-(3-Methoxypropyl)-N-{2-[4-([1,3]thiazolo[4,5-b]pyridin-2-yloxy)phenoxy]ethyl}cyclopropanamine]	97 nM	37 nM		
O=C(O)CCNCc1ccc(Oc2nc3ncccc3s2)cc1 [Example 275, N-[4-([1,3]Thiazolo[4,5-b]pyridin-2-yloxy)benzyl]-beta-alanine]	3300 nM	47 nM		
NC(=O)N[C@H]1C[C@H]2CC[C@@H](C1)N2Cc1ccc(Oc2nc3ncccc3s2)cc1 [Example 278, meso-1-{(3-endo)-8-[4-([1,3]Thiazolo[4,5-b]pyridin-2-yloxy)benzyl]-8-azabicyclo[3.2.1]oct-3-yl}urea]	280 nM	2 nM		
NC(=O)C1CCN(Cc2ccc(Oc3nc4ncc(F)cc4s3)cc2)CC1 [Example 283, 1-{4-[(6-Fluoro[1,3]thiazolo[4,5-b]pyridin-2-yl)oxy]benzyl}piperidine-4-carboxamide]	68 nM		78.2%	88.3%
NC(=O)C1CCN(Cc2ccc(Oc3nc4ncc(Cl)cc4s3)cc2)CC1 [Example 284, 1-{4-[(6-Chloro[1,3]thiazolo[4,5-b]pyridin-2-yl)oxy]benzyl}piperidine-4-carboxamide]	640 nM	89 nM		
CC(=O)N[C@H]1C[C@H]2CC[C@@H](C1)N2Cc1ccc(Oc2nc3nccc(C)c3s2)cc1 [Example 289, meso-endo-N-[8-{4-[(7-Methyl[1,3]thiazolo[4,5-b]pyridin-2-yl)oxy]benzyl}-8-azabicyclo[3.2.1]oct-3-yl]acetamide]	542 nM	9 nM		

Further lines, with some results ahead:

IC50 [1]	IC50 [2]	Compound	inhibition at 30 mg/kg [3]	inhibition in vivo at 30 mg/kg [4]
19 nM	5 nM	c1cnc2nc(Oc3ccc(OCCN4CCCCC4)cc3)sc2c1 [Example 10, 2-[4-(2-Piperidin-1-ylethoxy)phenoxy][1,3]thiazolo[4,5-b]pyridine]	68%	62.2%
310 nM	29 ± 5.2 nM	NC(=O)N1C[C@@H]2C[C@H]1CN2CCOc1ccc(Oc2nc3ncccc3s2)cc1 [Example 15, (1S,4S)-5-{2-[4-([1,3]Thiazolo[4,5-b]pyridin-2-yloxy)phenoxy]ethyl}-2,5-diazabicyclo[2.2.1]heptane-2-carboxamide]	61.9%	47.7%
43 nM	8 nM	c1ccc(OC2CCN(Cc3ccc(Oc4nc5ncccc5s4)cc3)CC2)cc1 [Example 260, 2-{4-[(4-Phenoxypiperidin-1-yl)methyl]phenoxy}[1,3]thiazolo[4,5-b]pyridine]		
462 nM	4 nM	c1ccc(SC2CCN(Cc3ccc(Oc4nc5ncccc5s4)cc3)CC2)nc1 [Example 263, 2-(4-{[4-(Pyridin-2-ylsulfanyl)piperidin-1-yl]methyl}phenoxy)[1,3]thiazolo[4,5-b]pyridine]		
159 nM	30 nM	c1ccc(SC2CCN(Cc3ccc(Oc4nc5ncccc5s4)cc3)CC2)cc1 [Example 264, 2-(4-{[4-(Phenylsulfanyl)piperidin-1-yl]methyl}phenoxy)[1,3]thiazolo[4,5-b]pyridine]		
900 nM	7 nM	NC(=O)N1CC2CN(Cc3ccc(Oc4nc5ncccc5s4)cc3)CC2C1 (stereo not shown) [Example 277, 5-[4-([1,3]Thiazolo[4,5-b]pyridin-2-yloxy)benzyl]hexahydropyrrolo[3,4-c]pyrrole-2(1H)-carboxamide]		
280 nM	82 nM	c1ccc(SC2CCN(CCOc3ccc(Oc4nc5ncccc5s4)cc3)CC2)nc1 [Example 291, 2-(4-{2-[4-(Pyridin-2-ylsulfanyl)piperidin-1-yl]ethoxy}phenoxy)[1,3]thiazolo[4,5-b]pyridine]		
79 nM	23 nM	CC(=O)N1CC2CC(CN(Cc3ccc(Oc4nc5ncccc5s4)cc3)C2)C1 [Example 294, meso-2-(4-{[7-Acetyl-3,7-diazabicyclo[3.3.1]non-3-yl]methyl}phenoxy)[1,3]thiazolo[4,5-b]pyridine]		
15 nM	6 nM	CC(=O)N1CCC2(CCN(Cc3ccc(Oc4nc5ncccc5s4)cc3)CC2)CC1 [Example 295, 3-Acetyl-9-[4-([1,3]thiazolo[4,5-b]pyridin-2-yloxy)benzyl]-3,9-diazaspiro[5.5]undecane]		
